Assay results reported in US9029337B2, “Modulation of factor 7 expression” (Isis Pharmaceuticals, Inc., priority 2007, dated 2015).
Strand notation (5' to 3'): a small letter for the sugar, then the base; units joined by * are phosphorothioate-linked, units joined directly phosphodiester-linked; [ ] holds rarer units or linkages, { } end groups; capitals alone tell only the bases. e = 2'-O-(2-methoxyethyl) (MOE); [5mC] = 5-methylcytosine; d = 2'-deoxy (DNA)

Tested on: human Factor 7 mRNA
Assay: Antisense inhibition of human Factor 7 mRNA in HepB3 cells, 50 nM antisense oligonucleotide, lipofectin
Assay type: cell-based
Details: Table 1, 50 nM, lipofectin, approximately 24 hours, relative to untreated control cells
How it was run: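 Seeding density was 4,000 cells per well. Following roughly 24 hours of oligonucleotide treatment, RNA was extracted and Factor 7 message quantified using the RTS 2927 primer probe set. Levels were corrected for RIBOGREEN® total RNA and expressed against untreated controls.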

Substance | % Inhibition [%]
403093 (antisense eG*eA*eG*eA*e[5mC]*d[5mC]*d[5mC]*dT*dG*dG*dT*dG*dT*dA*d[5mC]*eA*e[5mC]*e[5mC]*e[5mC]*e[5mC]) [compound 403093] | 75
407893 (antisense eT*e[5mC]*eG*eA*eA*dG*dG*d[5mC]*dA*dG*dG*dG*dA*dG*dG*e[5mC]*eA*eG*eA*eA) [compound 407893] | 33
407927 (antisense eA*eG*eG*eT*eA*dA*dG*dG*dA*dG*dG*d[5mC]*dT*d[5mC]*dA*eG*e[5mC]*eT*eG*eG) [compound 407927] | 55
407951 (antisense eA*eA*e[5mC]*eA*eG*d[5mC]*dT*dT*dT*dT*dG*dT*dT*dT*dT*eT*eA*eA*eA*eA) [compound 407951] | 0
407887 (antisense e[5mC]*e[5mC]*eA*eG*eG*d[5mC]*dA*dG*d[5mC]*d[5mC]*d[5mC]*dT*dG*dA*dA*eG*e[5mC]*e[5mC]*e[5mC]*eA) [compound 407887] | 78
407602 (antisense e[5mC]*eT*eG*e[5mC]*eA*dG*d[5mC]*d[5mC]*dA*dG*dG*d[5mC]*dA*dG*d[5mC]*e[5mC]*e[5mC]*eT*eG*eA) [compound 407602] | 81
407661 (antisense eT*eT*eT*eA*e[5mC]*dA*dA*dG*dA*dG*d[5mC]*dA*dG*dG*dG*eT*eG*e[5mC]*e[5mC]*eT) [compound 407661] | 47
407628 (antisense eT*eG*eA*eT*eG*dA*d[5mC]*d[5mC]*dT*dG*d[5mC]*dG*d[5mC]*d[5mC]*dA*e[5mC]*e[5mC]*e[5mC]*eG*e[5mC]) [compound 407628] | 38
407613 (antisense eT*eG*e[5mC]*eT*e[5mC]*dA*d[5mC]*dA*dG*d[5mC]*d[5mC]*dG*d[5mC]*d[5mC]*dG*eT*eT*e[5mC]*eT*e[5mC]) [compound 407613] | 66
407619 (antisense eA*eG*eA*eA*eT*dA*dG*dG*dT*dA*dT*dT*dT*dT*dT*e[5mC]*e[5mC]*eA*e[5mC]*eA) [compound 407619] | 64

Same assay, conditions: Table 6, 50 nM, lipofectin, approximately 24 hours

Substance | % Inhibition [%]
422192 (antisense eG*eA*eG*d[5mC]*dG*d[5mC]*dG*dG*dA*dA*dG*dA*dA*dG*dG*dG*dA*e[5mC]*eG*eG) [compound 422192] | 27
422273 (antisense eT*eA*d[5mC]*dT*dG*dA*dG*d[5mC]*dG*d[5mC]*dG*dG*dA*dA*dG*eA*eA*eG*eG*eG) [compound 422273] | 0
422198 (antisense eG*eT*eT*dA*d[5mC]*dT*dG*dA*dG*d[5mC]*dG*d[5mC]*dG*dG*dA*dA*dG*eA*eA*eG) [compound 422198] | 50

Same assay, conditions: Table 13 (microwalk), 50 nM, lipofectin, approximately 24 hours

Substance | % Inhibition [%]
422149 (antisense e[5mC]*eA*eT*dG*dG*dT*dG*dA*dT*dG*d[5mC]*dT*dT*d[5mC]*dT*dG*dA*eA*eT*eT) [compound 422149] | 61

Same assay, conditions: gapmers targeted to nucleobases 4868 to 4899 of SEQ ID NO: 1, Table 8

Substance | % Inhibition of human Factor 7 mRNA levels [%]
422298 (antisense eG*e[5mC]*d[5mC]*d[5mC]*dG*dA*dG*dT*dT*d[5mC]*dT*dG*d[5mC]*dA*dG*eG*eA*eG*e[5mC]*eG) [compound 422298] | 62
422293 (antisense eA*eG*dT*dT*d[5mC]*dT*dG*d[5mC]*dA*dG*dG*dA*dG*d[5mC]*dG*eG*e[5mC]*e[5mC]*eT*eA) [compound 422293] | 69
422216 (antisense eA*eG*eT*dT*d[5mC]*dT*dG*d[5mC]*dA*dG*dG*dA*dG*d[5mC]*dG*dG*d[5mC]*e[5mC]*eT*eA) [compound 422216] | 68
422139 (antisense eT*eT*e[5mC]*eT*eG*d[5mC]*dA*dG*dG*dA*dG*d[5mC]*dG*dG*d[5mC]*e[5mC]*eT*eA*eA*eA) [compound 422139] | 66
422290 (antisense eT*e[5mC]*dT*dG*d[5mC]*dA*dG*dG*dA*dG*d[5mC]*dG*dG*d[5mC]*d[5mC]*eT*eA*eA*eA*eT) [compound 422290] | 50

Same assay, conditions: lipofectin, 50 nM antisense oligonucleotide, approximately 24 hours, Factor 7 mRNA by real-time RT-PCR (RTS 2927), relative to untreated control

Substance | % Inhibition [%]
416503 (antisense eT*eA*eG*e[5mC]*e[5mC]*dA*d[5mC]*d[5mC]*d[5mC]*d[5mC]*dG*d[5mC]*dG*dG*dG*e[5mC]*eT*eG*eG*e[5mC]) [compound 416503] | 0
416567 (antisense eT*eG*eG*eT*eG*dG*d[5mC]*dA*d[5mC]*d[5mC]*dA*dG*dA*dT*dG*eT*e[5mC]*eT*eG*eA) [compound 416567] | 2
416483 (antisense eT*eG*eT*eG*eA*dG*dG*dG*dT*dT*d[5mC]*dA*dT*dT*dT*e[5mC]*eA*eG*eT*eG) [compound 416483] | 22
416469 (antisense eG*e[5mC]*eA*eG*e[5mC]*d[5mC]*dA*d[5mC]*dT*d[5mC]*dG*dA*dT*dG*dT*eA*e[5mC]*eT*eG*eG) [compound 416469] | 55
416478 (antisense eG*eT*e[5mC]*eT*e[5mC]*d[5mC]*dA*dG*d[5mC]*dA*dA*dT*dG*dA*dA*eG*eG*e[5mC]*eA*eG) [compound 416478] | 44
416566 (antisense eG*eT*eT*eT*eG*dT*dA*dT*dG*dG*dA*dG*dA*dG*dA*e[5mC]*e[5mC]*eA*eA*eT) [compound 416566] | 0
416476 (antisense eG*e[5mC]*eA*eG*eG*dT*dG*dG*dG*d[5mC]*dT*dT*dG*dG*d[5mC]*eT*eG*eA*eA*eG) [compound 416476] | 58
416480 (antisense eA*eA*eG*eT*eG*dA*dG*dA*dG*d[5mC]*dT*dA*dA*dA*d[5mC]*eA*eA*e[5mC]*e[5mC]*eG) [compound 416480] | 25

Same assay, conditions: oligonucleotides targeted to nucleobases 11830 to 11869 of SEQ ID NO: 1 (Table 9)

Substance | % Inhibition (human Factor 7 mRNA levels) [%]
422166 (antisense eA*eG*eG*dA*dG*dA*d[5mC]*dA*dA*dT*dG*dG*dT*d[5mC]*dA*dG*dG*eG*e[5mC]*eT) [compound 422166] | 63
422154 (antisense eT*e[5mC]*eA*dG*dG*dG*d[5mC]*dT*dG*dG*dT*dT*dT*dT*dG*dG*dA*eG*eG*eA) [compound 422154] | 31
422233 (antisense eG*eG*dT*d[5mC]*dA*dG*dG*dG*d[5mC]*dT*dG*dG*dT*dT*dT*eT*eG*eG*eA*eG) [compound 422233] | 46

Same assay, conditions: oligonucleotides targeted to nucleobases 13760 to 13789 of SEQ ID NO: 1 (Table 10)

Substance | % Inhibition (human Factor 7 mRNA levels) [%]
422178 (antisense eA*e[5mC]*e[5mC]*d[5mC]*dG*d[5mC]*d[5mC]*dG*dG*d[5mC]*dT*d[5mC]*dT*dG*d[5mC]*dT*d[5mC]*eA*eT*e[5mC]) [compound 422178] | 37
422109 (antisense e[5mC]*e[5mC]*e[5mC]*eG*e[5mC]*d[5mC]*dG*dG*d[5mC]*dT*d[5mC]*dT*dG*d[5mC]*dT*e[5mC]*eA*eT*e[5mC]*e[5mC]) [compound 422109] | 68
422254 (antisense e[5mC]*e[5mC]*d[5mC]*dG*d[5mC]*d[5mC]*dG*dG*d[5mC]*dT*d[5mC]*dT*dG*d[5mC]*dT*e[5mC]*eA*eT*e[5mC]*e[5mC]) [compound 422254] | 42

Same assay, conditions: oligonucleotides targeted to nucleobases 15098 to 15122 of SEQ ID NO: 1 (Table 12)

Substance | % Inhibition (human Factor 7 mRNA levels) [%]
422208 (antisense eG*e[5mC]*eA*d[5mC]*dA*d[5mC]*dA*dT*dG*dG*dA*dG*dT*d[5mC]*dA*dG*d[5mC]*eA*eT*e[5mC]) [compound 422208] | 56
422212 (antisense eG*eA*e[5mC]*dA*dG*d[5mC]*dA*d[5mC]*dA*d[5mC]*dA*dT*dG*dG*dA*dG*dT*e[5mC]*eA*eG) [compound 422212] | 30
